TGI and GI50 data for 14 compounds are collected here from PubChem BioAssay (NCI).

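Test compounds were applied to cells in 96-well plates for 48 hours at 5 doses. GI50 marks 50% less growth. TGI: concentration producing complete growth inhibition.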

Holding throughout (assay): NCI anticancer screen, dose series, 48 h
Experiment [1] has as its system CAKI-1 renal.
Experiment [2] concerns EKVX NSCLC.
For experiment [3], the system named is HL-60(TB) leukemia.
In experiment [4] the test system is LOX IMVI melanoma.
In experiment [5] the test system is NCI-H460 lung.
In experiment [6] the test system is SK-OV-3 ovarian.
The subject of experiment [7] is SNB-75 CNS.
Experiment [8] has as its system OVCAR-3 ovarian.
The test system of experiment [9] is NCI-H226 lung.
In experiment [10] the test system is HS 578T breast.

In the case of `COC1=CC(=O)C(Br)=CC1=O`, the TGI in [1] was 32.4 µM; in experiment [2], 44.8 µM; in [3], 23.6 µM; in experiment [4], 34.3 µM; in experiment [5], over 100 µM; in experiment [6] it was over 100 µM. The compound also showed a TGI in experiment [7] of 29.1 µM.

In the case of `O=C(N/C(=C\c1c(O)ccc2ccccc12)c1nc2ccccc2[nH]1)c1ccccc1`, the TGI in experiment [1], in experiment [2], in experiment [4], in experiment [5], in experiment [8] and in [6] was over 100 µM throughout. In experiment [7], this compound yielded a TGI of 45.6 µM.

With `Cn1cnc([N+](=O)[O-])c1Sc1nnnn1C`, the TGI was 31.8 µM in experiment [1]; 40.8 µM in experiment [2]; 26.6 µM in experiment [4]; over 100 µM in experiment [9]; over 100 µM in experiment [5]; 29.4 µM in experiment [8]. In addition, the TGI was over 100 µM in experiment [6] and 89.6 µM in experiment [7].

For `CCN(CCCl)CCCCCNc1c2ccccc2nc2ccc(OC)cc12`, the TGI in experiment [1] turned out to be 16.7 µM; in experiment [2], 18.1 µM; in [3] it was 0.266 µM; in [4], 1.09 µM; in experiment [9], 2.3 µM; in [5] it was 1.51 µM. For the same compound, the TGI in experiment [8] came out at 7.28 µM; in experiment [6], 3.62 µM; in [7], 3.02 µM.

As to `Cc1ccc(NC(=O)C(=O)C(C(=O)c2ccc3ccccc3c2)C2OC(=O)c3ccccc32)c(C)c1` (stereo not drawn), the TGI in experiment [1] was 32 µM; in experiment [2] it was 52 µM; in experiment [4], 32.2 µM; in [9], 15.8 µM; in [5] it was 25.5 µM; in experiment [8], 31.5 µM. The results for the TGI in [6] and in experiment [7] were 60.4 µM and 47.3 µM, respectively.

Consider `COc1cc(O)c(C(=O)CC(C)=O)c(OC)c1`, for which the TGI in experiment [1], in experiment [2], in experiment [3], in experiment [4], in experiment [9] and in experiment [5] was over 100 µM in each case. Also, the TGI in [8], in [6] and in [7] was over 100 µM each time.

On to `CCCN(CCC)CCc1cc(C(C)=O)n(S(=O)(=O)c2ccc(C)cc2)c1`, for which the TGI in experiment [1], in [2], in [9], in [5], in experiment [8] and in [6] was over 100 µM throughout. The TGI in experiment [7] is over 100 µM.

`CN(C)CCNC(=O)c1cccc2nc3ccc4cccnc4c3nc12`: the TGI came to 6.37 µM in experiment [1]; 2.07 µM in [2]; 2.91 µM in [3]; 1.51 µM in experiment [4]; 1.83 µM in [9]; 1.01 µM in experiment [5]. For the same compound, the TGI in experiment [8] was 4.33 µM; in [6] it was 8.53 µM; in experiment [7], 1.84 µM.

For `COc1cccc2c1C(=O)c1c(O)c3c(c(O)c1C2=O)C[C@@](O)(C(C)=O)C[C@@H]3OC1CC([N+]([O-])(Cc2ccccc2)Cc2ccccc2)C(O)C(C)O1` (stereo partly drawn), the TGI in experiment [1] was 2.47 µM; in [2], 3.47 µM; in experiment [4], 2.41 µM; in experiment [5], 2.39 µM; in experiment [8], 3.28 µM; in [6], 17.2 µM. This compound also yielded a TGI in experiment [7] of 4.25 µM.

In the case of `CSC(=Nc1ccccc1Cl)NC(=O)c1ccc(Br)cc1`, the TGI in experiment [1] was 97.4 µM; in experiment [2], over 100 µM; in experiment [3] it was over 100 µM; in experiment [4], over 100 µM; in experiment [9], over 100 µM; in experiment [5], over 100 µM. Moreover, the TGI in [8] and in experiment [6] was over 100 µM throughout.

Take `NCCOCn1cc(Cc2cccc(OCc3ccccc3)c2)c(=O)[nH]c1=O`: the TGI in experiment [2], in experiment [3], in [4], in [9], in experiment [5] and in experiment [8] was over 100 µM each time. For the same compound, the TGI in experiment [6] and in [7] was over 100 µM in each case.

Take `O=c1cc(-c2ccccc2)oc2ccc(OC/C(=N/O)c3ccc(F)cc3)cc12`: the GI50 in experiment [1] was 3.57 µM; in experiment [2], 1.97 µM; in [3], 1.97 µM; in experiment [4], 5.46 µM; in [9], 13.6 µM; in experiment [5] it was 2.54 µM. Further, the GI50 in experiment [8] is 1.67 µM; in [6], 4.9 µM; in experiment [7], 4.64 µM. For the same compound, the TGI in experiment [1] is 16.2 µM; in [2], 15.8 µM; in experiment [3], 13.9 µM; in experiment [4], 12.3 µM; in experiment [9] it was over 50 µM; in experiment [5], 12.1 µM. Further, the figures for the TGI in experiment [8], in experiment [6] and in [7] were 7.2 µM, 30.7 µM and over 50 µM, respectively.

With `CC(C)=O.O=C([O-])C(F)(F)F.O=C([O-])C(F)(F)F.O=C([O-])C(F)(F)F.O=C([O-])C(F)(F)F.[Rh+2].[Rh+2]`, the GI50 in [2] is 47.2 µM; in [4], 53.3 µM; in experiment [9], over 100 µM; in [8] it was over 100 µM; in [6] it was over 100 µM; in experiment [7], 58.6 µM. Besides, the TGI in experiment [2], in [4], in experiment [9], in [8], in [6] and in experiment [7] was over 100 µM each time.

Turning to `COc1cc(OC)cc(-c2nc3sccn3c2/C=N/N=C(N)N)c1`, the GI50 in experiment [1] was 8.03 µM; in experiment [2] it was 8.2 µM; in experiment [10] it was 12.6 µM; in experiment [4], 6.49 µM; in [9] it was 6.96 µM; in [5] it was 13.3 µM. Moreover, the GI50 is 5.52 µM in experiment [8] and 7.28 µM in experiment [6]. The TGI in experiment [1] amounted to 15.2 µM; in experiment [2], 15.9 µM; in experiment [10] it was 25.3 µM; in experiment [4], 12.8 µM; in [9], 14.8 µM; in experiment [5], 42.9 µM. Also, the TGI in experiment [8] worked out at 12.3 µM; in experiment [6], 15.5 µM.
